Test results as given in patent US11266715B2, “C3A receptor agonists for use against ischemic brain injury, stroke, traumatic brain injury, spinal cord injury and neurodegenerative disorders” (priority 2016, dated 2022).

Tests used:
[1] = tested on: newly differentiated neurons; settings: in vitro; cited from earlier work
GAP-43+ puncta = test: GAP-43 immunostaining of dorsal hippocampus after neonatal HI; type: in vivo, mouse
Experimental: (§1) Neuronal nuclei (NeuN), growth associated protein 43 (GAP-43), synapsin I (SYN), vesicular glutamate transporter 1 (VGLUT1), Glial Fibrillary Acidic Protein (GFAP) and ionized calcium-binding adapter molecule 1 (Iba-1) were visualized in the cornu ammonis (CA) and dentate gyrus (DG) of the dorsal hippocampus by immunohistochemistry. Briefly, following heat-induced antigen retrieval with 0.01 M citrate buffer (pH 6, 0.05% Tween 20) for 3×5 min, sections were washed 3×5 min with PBS-T (0.05% Tween 20), non-specific protein binding was reduced by incubation with blocking buffer [4% normal donkey serum (NeuN and Iba-1), 1% bovine serum albumin (GAP-43 and SYN), 3% normal goat serum (VGLUT1), 2% bovine serum albumin (GFAP) in PBS-T] for 1 h at room temperature (RT). Tissue was then incubated with the primary antibody [anti-NeuN biotinylated (1:200, MAB 377B, Millipore, Mass., USA), anti-GAP-43 (1:1000, MAB347, Millipore, Mass., USA), anti-SYN (1:150, SC-7379, Santa Cruz, Calif., USA), anti-VGLUT1 (1:500, AB5905, Millipore, Mass., USA), anti-GFAP (1:200, Z0334, Dako, Stockholm, Sweden), anti-Iba-1 (1:500, 019-19741, Wako, Osaka, Japan)] in blocking buffer overnight at 4° C. One slide per staining batch was incubated only with blocking buffer without primary antibody and used as a negative control. […]
(§2) NeuN positive cells, GFAP positive relative area, as well as GAP-43, SYN, and VGLUT1 positive puncta were counted by using MetaMorph software (ver. 7.8.6, Molecular Devices, CA, USA) on confocal images obtained with a 20× (NeuN and GFAP) or 63× (GAP-43, SYN, and VGLUT1) objective (Carl Zeiss LSM 700 Laser Scanning Microscope, Jena, Germany). Iba-1 positive cell somata were counted on bright field images obtained with a 20× objective (Nikon Eclipse 80i). […]

Iba-1+ cells = test: Iba-1 positive cell density in dorsal hippocampus after neonatal HI; type: in vivo, mouse; settings: P55, 3 days treatment after HI
Experimental: On P51 (long-term study) or P55 (short-term study), mice were deeply anesthetized with thiopental [Pentothal Sodium (0.01 ml/g body weight), Hospira, Ill., USA)] and transcardially perfused with 0.9% saline, followed by 4% paraformaldehyde (PFA) in 0.1 M PBS. Brains were removed and post-fixed in 4% PFA at 4° C. for 24 h followed by 70% ethanol for 24 h. Tissue was processed using an automatic tissue processor (SAKURA Tissue Tek VIP 3000, Tournai, Belgium) and embedded in paraffin. Brains were cut at room temperature into 8-μm serial coronal sections using a sliding microtome (Microm HM 450, Thermo Scientific, Massachusetts, USA), attached to silane coated slides and dried at RT. […]
as §2

NeuN+ cells = test: NeuN positive cell density in dorsal hippocampus after neonatal HI; type: in vivo, mouse
Experimental: as §1, with “control. Next, sections were washed 3×5 min with PBS-T and incubated with the secondary antibody [rabbit-anti mouse biotinylated Ig (1:200, GAP-43, E0354, Dako, Stockholm, Sweden), donkey-anti goat biotinylated Ig (1:200, SYN, 705065147, Jackson ImmunoResearch Inc., PA, USA), Alexa Fluor 488 goat-anti guinea pig Ig (1:500, VGLUT1, A11073, Molecular Probes, Oregon, USA), Alexa Fluor 488 goat-anti rabbit (1:2000, GFAP, A11034, Molecular Probes, Oregon, USA), donkey-anti rabbit biotinylated (1:500, Iba-1, 711-065-152, Jackson ImmunoResearch Inc., PA, USA), in blocking buffer for 1 h at RT. After washing 3×5 min with PBS-T, sections were incubated with Streptavidin-Cy3 (1:100 (GAP-43, SYN), 1:300 (NeuN), S6402, Sigma-Aldrich, Missouri, USA) in blocking buffer for 1 h at RT. Then, sections were washed 3×5 min with PBS-T, mounted with Pro Long Gold (P36931, Life Technologies, CA, USA) and cover slipped for 24 h before being sealed with nail polish.” for “control.”
as §2

synapsin I+ puncta = test: Synapsin I immunostaining of dorsal hippocampus after neonatal HI; type: in vivo, mouse; settings: between groups or hemispheres
Experimental: Neuronal nuclei (NeuN), growth associated protein 43 (GAP-43), synapsin I (SYN), vesicular glutamate transporter 1 (VGLUT1), Glial Fibrillary Acidic Protein (GFAP) and ionized calcium-binding adapter molecule 1 (Iba-1) were visualized in the cornu ammonis (CA) and dentate gyrus (DG) of the dorsal hippocampus by immunohistochemistry. Briefly, following heat-induced antigen retrieval with 0.01 M citrate buffer (pH 6, 0.05% Tween 20) for 3×5 min, sections were washed 3×5 min with PBS-T (0.05% Tween 20), non-specific protein binding was reduced by incubation with blocking buffer [4% normal donkey serum (NeuN and Iba-1), 1% bovine serum albumin (GAP-43 and SYN), 3% normal goat serum (VGLUT1), 2% bovine serum albumin (GFAP) in PBS-T] for 1 h at room temperature (RT). […]
as §2

In the case of “C3a: Purified human C3a peptide (Complement Technologies), C3a receptor agonist, amino acid sequence SEQ ID NO: 1”, the neurite outgrowth [1] is given as “increased neurite outgrowth”, the “density of GAP-43+ puncta in CA1” value (GAP-43+ puncta; between groups) is given as “did not find any differences between groups” and the “expression of GAP-43 in the dentate gyrus” value (GAP-43+ puncta; mouse, in vivo) is given as “No effect”. The “average GAP-43+ punctum area in CA1 of HI injured hippocampus vs sham mice” value (GAP-43+ puncta; p<0.05 for PBS) was “PBS treated, but not C3a treated, mice was larger compared with sham mice”, the “density of Iba-1+ cells, ipsilateral vs contralateral” value (Iba-1+ cells) was “did not differ between the hemispheres” and the “neuronal density in CA1 and CA3, ipsilesional vs contralesional hemisphere” value (NeuN+ cells; both HI groups, p<0.01 and p<0.05) was “decreased in the ipsilesional hemisphere”. The “NeuN+ cell density in the DG” value (NeuN+ cells; data not shown) was “No effect”, the “number of NeuN+ cells in injured CA3 vs sham mice” value (NeuN+ cells; p<0.01) was “lower compared with sham mice” and the “number of NeuN+ cells in injured CA1 vs sham mice” value (NeuN+ cells; p<0.05 for PBS) was “of PBS but not C3a treated mice was lower compared with sham mice”. For the same substance, the “density or average area of synapsin I+ puncta in CA1 or dentate gyrus” value (synapsin I+ puncta) was “did not find any differences”.
